Results reported in US12600696B2 (XENIOPRO GMBH, priority 2017, dated 2026).

Tests used:
Type in all cases: cell-based
[1] = test system: HL-60 cells (human acute myeloid leukemia cells); assay: alamarBlue proliferation assay with HL-60 cells; settings: 120 h, 5 days, relative to DMSO baseline level of 1.0, read-out: AVEw, weighted arithmetic mean of normalized fluorescence intensity values (Activity Range), HL-60 proliferation
Procedure: (§1) The antiproliferative activities of compounds falling under formula I, formula II, formula III, formula IV and formula V were investigated on cells or cell lines originating from a disorder of the myeloid cell compartment, the neuroendocrine system, the cervix, and the mucosal epithelium, as well as from the skin epithelium. To this end, HL-60 cells, TT cells, HeLa cells, CAL-27 cells and human primary epidermal keratinocytes (HPEK) were seeded into 96-well plates suitable for fluorescence assays (CORNING #3598) at following initial cell numbers: 1000 cells per well for HL-60; 9000 cells per well for TT; 2000 cells per well for HeLa, 2000 cells per well for CAL-27, 2000 cells per well for HPEK. The cells were treated with compounds at indicated final concentrations (diluted from the 1000× stock-solutions in DMSO to a final DMSO concentration of 0.1% v/v) or with the empty carrier DMSO at 0.1% v/v as control for 5 days. At day 5 after starting the treatments the cells were subjected to the alamarBlue® Proliferation Assay (Bio-Rad Serotec GmbH, BUF012B) according to the protocol of the manufacturer. The readout was taken with a multi-well plate-reader in the fluorescence mode with applying a filter for excitation at 560 nm (band width 10 nm) and for emission at 590 nm (band width 10 nm). Resveratrol (RES) treatment was included as control for growth inhibition.
(§2) The assays were performed in duplicate or more replicates of independent single experiments each containing a six-fold replicate for every condition. For every individual plate, the measured fluorescence intensity values of the conditions with compound treatment were normalized against the corresponding equally weighted arithmetic mean of the fluorescence intensity values of the six DMSO treated control wells in order to obtain the relative values to a baseline level of 1.0. The statistical calculations were performed in analogy to the luciferase assay as described above. To this end, two independent outlier analyses were performed according to the methods by Peirce and Chauvenet (Ross, Journal of Engineering Technology 2003, 1-12). Outliers confirmed by at least one of the methods were excluded from the calculations but not more than one value out of six per compound within a single experiment. The weighted arithmetic mean AVEw for each compound was calculated from the normalized values over all independent replicates of the single experiments comprising the six replicates each. The corresponding standard deviation for the weighted arithmetic mean was calculated according to the method described by Bronstein et al. (Bronstein, Semendjajew, Musiol, Mühlig, Taschenbuch der Mathematik, 5th edition 2001 (German), publisher: Verlag Harri Deutsch, Frankfurt am Main and Thun) and was combined with the Gauß′ error propagation associated with the performed calculation for the normalization. The resulting standard deviation is herein referred to as “combined standard deviation”.
HL-60 cells were cultivated according to the protocol of the provider in RPMI 1640 medium (Fisherscientific, #11554526) containing 10% fetal bovine serum (Fisherscientific, #15517589).
(§3) A compound is considered as a growth inhibitor of HL-60 cells, if—at a reference concentration of 20 μM—the weighted arithmetic mean of the normalized fluorescence intensity values after addition of the corresponding combined standard deviation amounts to 0.9 or lower, in particular to 0.8 or lower, 0.7 or lower, 0.6 or lower, 0.4 or lower, and 0.2 or lower, relative to the overall basis level of 1.0. The overall basis level was calculated as the weighted arithmetic mean of all normalized values from the DMSO control measurements in analogy to the calculations performed for the test-compounds. The corresponding combined standard deviation for the DMSO values amounts to less than 1·10^−2.

[2] = test system: CAL-27 cells (human tongue squamous cell carcinoma cells); assay: alamarBlue proliferation assay with CAL-27 cells; settings: Homo sapiens, 120 h, 20 μM, 5 days, relative to DMSO baseline level of 1.0, read-out: AVEw, weighted arithmetic mean of normalized fluorescence intensity values (Activity Range), CAL-27 proliferation
Procedure: as §1, §2
CAL-27 cells were cultivated according to the protocol of the provider (but at 5% instead of 10% CO2) in DMEM medium (Fisherscientific, #11584456) containing 10% fetal bovine serum (Fisherscientific, #15517589).
as §3, with “CAL-27” for “HL-60”

[3] = test system: Notch signaling (hNotch1ΔE, human Notch1 receptor) in HeLa cells; assay: Notch reporter assay (luciferase luminescence readout in transfected HeLa cells); settings: Homo sapiens, 20 hours, relative to DMSO baseline level of 1.0, read-out: AVEw, weighted arithmetic mean of double-normalized Notch-reporter luciferase luminescence values (Activity Range)
Procedure: An according Notch-reporter assay, i.e. a luciferase-based luminescence readout, was used here to quantify the ability of the claimed small molecules to augment Notch signaling in a cellular system. For this purpose, HeLa cells, obtainable from the American Type Culture Collection (ATCC) under the accession number ATCC-CCL-2, were transiently transfected for 24 hours using FuGENE® HD (Promega, #E2311) as transfection reagent with expression vectors of a membrane-tethered form of the constitutively active intracellular domain of the human Notch1 receptor (hNotch1ΔE) to activate the signaling cascade (BPS Bioscience, human analogue to Notch Pathway Reporter Kit #60509 component C), a Firefly luciferase being expressed under the control of a Notch-responsive promoter to monitor Notch signaling (BPS Bioscience, Notch Pathway Reporter Kit #60509, CSL luciferase reporter vector from component A not premixed with Renilla luciferase vector), and a Renilla luciferase being constitutively expressed in a Notch signaling independent manner to include a measure for the cell number per sample (Promega, pRL-SV40, #E2231). HeLa cells were cultivated according to the protocol of the provider in DMEM medium (Fisherscientific, #11584456) containing 10% fetal bovine serum (Fisherscientific, #15517589). The transfection was carried out in a 100 mm-culture dish (StarLab, #CC7682-3394) with cells being properly attached to the plate at a cell confluency of 80-90% in a total volume of 7 mL culture medium. Per dish to be transfected, a transfection mix was prepared by adding to 238 μL Opti-MEM (Fisherscientific, #10149832) 40 μL of the hNotch1ΔE expression vector (100 ng/μL), 80 μL of the CSL luciferase reporter vector (40 ng/μL), 4 μL of the pRL-SV40-Renilla luciferase vector (10 ng/μL), and in the last step 18.1 μL of FuGENE® HD. After addition of FuGENE® HD the transfection mix was let stand for 15 min at room temperature and hereafter equally distributed into the culture dish. Subsequently, i.e. after 24 hours of transfection, the transfected cells (10.000 cells per well) were incubated with the test-compounds at a final concentration of 10 μM (diluted from 10 mM stock-solutions in DMSO to a final DMSO concentration of 0.1% v/v) or with the empty carrier DMSO at 0.1% v/v as control for 20 hours in 96-well plates suitable for luminescence readouts (CORNING, #3610). Hereafter, the cells were lysed with 30 μL per well of Passive Lysis Buffer (Promega, #E194A, component of Dual-Luciferase® Reporter Assay System, #E1910) and the Firefly as well as Renilla luciferase values were measured with a luminescence reader with applying 15 μL per well each of the corresponding enzyme substrates needed to create the luminescence signals (Promega, Dual-Luciferase® Reporter Assay System, #E1910).
The suitability of the assays for monitoring Notch signaling was controlled by additionally including a generally accepted commercial Notch inhibitor, i.e. DAPT, as negative control, as well as the reported Notch enhancer resveratrol (RES) as positive control (Pinchot et al., Cancer 2011, 117, 1386-1398; Truong et al., Ann. Surg. Oncol. 2011, 18, 1506-1511; Yu et al., Mol. Cancer Ther. 2013, 12, 1276-1287). Both control compounds were likewise tested at 10 μM.
Per single experiment the measurement was performed in six replicates per compound. For every compound, this experiment was repeated in three or more independent replicates. The values of the Notch-reporter luciferase were normalized by division through the corresponding individual Notch-independent Renilla values in order to eliminate the impact of variation in the absolute cell-numbers in between the samples. For every individual plate, a second normalization was performed against the equally weighted arithmetic mean (here abbreviated as AVE) of the six associated Renilla-normalized DMSO-control values within a single experiment in order to obtain the relative values to a baseline level of 1.0. […]

Structure (SMILES)	activity at 20 µM [1] [%]	activity at 20 µM [2] [%]	fold induction at 10 µM [3]
Cc1ccc(Oc2ccc(C(=O)NO)cc2)cc1 [Compound 164, N-hydroxy-4-(p-tolyltoxy)benzamide]	40 to 60	70 to 80	
CNC(=O)c1ccc(Oc2ccc(C3CC4CCC3CC4)cc2)cc1 (stereo not drawn) [Compound 211, 4-(4-((1s,4s)-bicyclo[2.2.2]octan-2-yl)phenoxy)-N-methylbenzamide]	20 to 40	40 to 60	
CN(C)C(=O)c1ccc(Oc2ccc(C3C[C@@H]4CC[C@H]3C4)cc2)cc1 (stereo partly drawn) [Compound 236, 4-(4-((1S,4R)-bicyclo[2.2.1]heptan-2-yl)phenoxy)-N,N-dimethylbenzamide]	40 to 60	80 to 90	
CN(C)C(=O)c1ccc(Oc2ccc(C34CC5CC(CC(C5)C3)C4)cc2)cc1 [Compound 238, 4-(4-((3r,5r,7r)-adamantan-1-yl)pheoxy)-N,N-dimethylbenzamide]	40 to 60	60 to 70	
Cc1ccc(Oc2ccc(C(=O)N(C)C)cn2)cc1 [Compound 316, N,N-dimethyl-6-(p-tolyloxy)nicotinamide]	80 to 90		1.2 to 1.3
CCc1ccc(Oc2ccc(C(=O)N(C)C)cn2)cc1 [Compound 317, 6-(4-ethylphenoxy)-N,N-dimethylnicotinamide]	80 to 90		1.4 to 1.7
CCCc1ccc(Oc2ccc(C(=O)N(C)C)cn2)cc1 [Compound 318, N,N-dimethyl-6-(4-propylphenoxy)nicotinamide]	40 to 60		1.7 to 2
CCCCc1ccc(Oc2ccc(C(=O)N(C)C)cn2)cc1 [Compound 319, 6-(4-butylphenoxy)-N,N-dimethylnicotinamide]	40 to 60		1.3 to 1.4
CC(C)c1ccc(Oc2ccc(C(=O)N(C)C)cn2)cc1 [Compound 322, 6-(4-Isopropylphenoxy)-N,N-dimethylnicotinamide]	70 to 80		≥ 2
CN(C)C(=O)c1ccc(Oc2ccc(C(F)(F)F)cc2)nc1 [Compound 325, N,N-dimethyl-6-(4-(trifluoromethyl)phenoxy)nicotinamide]	80 to 90		1.2 to 1.3
CN(C)C(=O)c1ccc(Oc2ccc(C3C[C@@H]4CC[C@H]3C4)cc2)nc1 (stereo partly drawn) [Compound 336, 6-(4-((1S,4R)-bicyclo[2.2.1]heptan-2-yl)phenoxy)-N,N-dimethylnicotinamide]	60 to 70		1.4 to 1.7
CN(C)C(=O)c1ccc(Oc2ccc(C3CC4CCC3CC4)cc2)nc1 (stereo not drawn) [Compound 337, 6-(4-((1s,4s)-bicyclo[2.2.2]octan-2-yl)phenoxy)-N,N-dimethylnicotinamide]	80 to 90		1.4 to 1.7
COC(=O)c1ccc(Oc2ccc(C3CCCCC3)cc2)c(F)c1 [Compound 385, methyl 4-(4-cyclohexylphenoxy)-3-fluorobenzoate]	80 to 90		1.4 to 1.7
CCCCc1ccc(Oc2ccc(C(=O)OCC)cc2F)cc1 [Compound 395, Ethyl 4-(4-butylphenoxy)-3-fluorobenzoate]	80 to 90		1.4 to 1.7
CCOC(=O)c1ccc(Oc2ccc(C(C)(C)CC)cc2)c(F)c1 [Compound 399, ethyl 3-fluoro-4-(4-(tert-pentyl)phenoxy)benzoate]	80 to 90		1.1 to 1.2
CCOC(=O)c1ccc(Oc2ccc(C3CCCCC3)cc2)c(F)c1 [Compound 410, ethyl 4-(4-cyclohexylphenoxy)-3-fluorobenzoate]	70 to 80		1.4 to 1.7
COC(=O)c1ccc(Oc2ccc(C3(C(F)(F)F)CC3)cc2)cc1 [Compound 712, Methyl 4-(4-(1-(trifluoromethyl)cyclopropyl)phenoxy)benzoate]	80 to 90		1.1 to 1.2
CN(C)C(=O)c1ccc(Oc2ccc(C3(C(F)(F)F)CC3)cc2)cc1 [Compound 784, N,N-Dimethyl-4-(4-(1-(trifluoromethyl)cyclopropyl)phenoxy)-benzamide]	40 to 60		1.2 to 1.3
